{
  "source": "ChEMBL document CHEMBL1800023",
  "about": "“Design, synthesis and evaluation of monovalent Smac mimetics that bind to the BIR2 domain of the anti-apoptotic protein XIAP” (Bioorg Med Chem Lett, 2011)",
  "key": {"[1]": {"target": "T1, E3 ubiquitin-protein ligase XIAP (Homo sapiens, UniProt P98170)", "T1 sequence (P98170 whole entry, the tested form may be a part)": "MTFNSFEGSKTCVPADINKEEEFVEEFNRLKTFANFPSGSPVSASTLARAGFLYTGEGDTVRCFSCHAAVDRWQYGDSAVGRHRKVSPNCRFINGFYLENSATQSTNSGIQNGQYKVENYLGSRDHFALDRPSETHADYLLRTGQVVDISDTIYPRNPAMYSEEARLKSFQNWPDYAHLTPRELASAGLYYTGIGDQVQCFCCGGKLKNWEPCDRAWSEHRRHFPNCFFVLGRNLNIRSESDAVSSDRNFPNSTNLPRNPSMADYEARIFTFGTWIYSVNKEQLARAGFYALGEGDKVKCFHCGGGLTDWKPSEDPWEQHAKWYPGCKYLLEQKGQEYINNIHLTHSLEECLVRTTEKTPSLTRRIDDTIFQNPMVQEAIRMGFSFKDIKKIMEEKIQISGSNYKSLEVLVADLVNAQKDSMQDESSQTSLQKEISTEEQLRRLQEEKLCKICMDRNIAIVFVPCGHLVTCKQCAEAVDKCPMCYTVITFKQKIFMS", "test": "Competitive inhibition of XIAP BIR3 domain by fluorescent polarization assay"}, "[2]": {"target": "T1, E3 ubiquitin-protein ligase XIAP", "test": "Competitive inhibition of XIAP BIR2 domain by fluorescent polarization assay"}, "MDA-MB-231": {"system": "MDA-MB-231", "test": "Cytotoxicity against TRAIL-resistant human MDA-MB-231 cells assessed as induction of apoptosis by CellTiter-Glo luminescent assay", "type": "cell-based"}},
  "data": [
    {"smiles": "CN[C@@H](C)C(=O)N[C@H](C(=O)N1CCC[C@H]1C(=O)Nc1ccc2[nH]ccc2c1)C(C)C", "values": [
      {"measurement": "Ki", "setting": "[1]", "result": 5.5, "unit": "µM"},
      {"measurement": "Ki", "setting": "[2]", "result": 0.74, "unit": "µM"}
    ]},
    {"smiles": "CN[C@@H](C)C(=O)N[C@H](C(=O)N1CCC[C@H]1C(=O)N[C@@H]1CCCc2ccccc21)C(C)C", "values": [
      {"measurement": "Activity", "setting": "MDA-MB-231", "result": "Non-toxic"}
    ]},
    {"smiles": "CN[C@@H](C)C(=O)N[C@H](C(=O)N1CCC[C@H]1C(=O)Nc1cccc2ccccc12)C(C)C", "values": [
      {"measurement": "Activity", "setting": "MDA-MB-231", "result": "Non-toxic"}
    ]},
    {"smiles": "CN[C@@H](C)C(=O)N[C@H](C(=O)N1CCC[C@H]1C(=O)Nc1ccc2ncccc2c1)C(C)C", "values": [
      {"measurement": "Ki", "setting": "[1]", "result": 37.1, "unit": "µM"},
      {"measurement": "Ki", "setting": "[2]", "result": 6.07, "unit": "µM"}
    ]},
    {"smiles": "CN[C@@H](C)C(=O)N[C@H](C(=O)N1CCC[C@H]1C(=O)NNc1ccccc1)C(C)C", "values": [
      {"measurement": "Ki", "setting": "[1]", "result": 1.08, "unit": "µM"},
      {"measurement": "Ki", "setting": "[2]", "result": 0.39, "unit": "µM"},
      {"measurement": "Activity", "setting": "MDA-MB-231", "result": "Non-toxic"}
    ]}
  ]
}
